Here are results for eleven molecules from US8350036B2, “Bisnaphthalimidopropyl derivative compounds with anti-parasite and anti-cancer activity” (Universidade Do Porto, priority 2006, dated 2013).

One data set relates to CaCo-2 colon carcinoma. As to the kind of experiment: Cytotoxicity against CaCo-2 cells by MTT assay. The note with it: Homo sapiens, 0.01-40 μM. It counts as cell-based. The procedure: Cytotoxity was evaluated for CaCo-2 colon carcinoma using the MTT assay with protocols appropriate for the individual test system.^11,13 CaCo-2 cells were maintained in Earle's Minimum Essential Medium (Sigma), supplemented with 10% fetal calf serum (Biosera), 2 mM L-glutamine (Sigma), 1% non-essential amino acids (Sigma), 100 IU mL^−1 penicillin and 100 μg mL^−1 streptomycin (Sigma). Exponentially growing cells were plated at 2×10^4 cells cm^−2 into 96-well plates and incubated for 24 h before the addition of drugs. Stock solutions of compounds were initially dissolved in 20% DMSO and further diluted with fresh complete medium. After 24 and 48 h of incubation at 37° C., the medium was removed and 200 μl of MTT reagent (1 mg/mL) in serum free medium was added to each well. The plates were incubated at 37° C. for 4 h. At the end of the incubation period, the medium was removed and pure DMSO (200 μl) was added to each well. The metabolized MTT product dissolved in DMSO was quantified by reading the absorbance at 560 nm on a micro plate reader (Dynex Technologies, USA). IC50 values are defined, as the drug concentrations required to reduce the absorbance by 50% of the control values. The IC50 values were calculated from the equation of the logarithmic line determined by fitting the best line (Microsoft Excel) to the curve formed from the data. The IC50 value was obtained from the equation for y=50 (50% value).

A short description of another data set: Solubility. In kind it is physicochemical. The following applies: effect of longer alkyl central chain.
Data set [1] has as its system axenic amastigote of Leishmania infantum. In words: Growth of luciferase-expressing axenic amastigotes (luciferase assay). It counts as cell-based. The following applies: for parasite growth inhibition, axenic amastigote: FIG. 1; for IC50: Leishmania infantum, axenic amastigotes, 72 h of incubation, 37° C. As to the method:
(§1) The axenic amastigote of Leishmania infantum (clone MHOM/MA671TMA-P263) transfected with reporter gene that encode to the luciferase enzyme (Roy et al, 2000) were grown at 37° C. with 5% CO2 in a cell-free medium called MAA (medium for axenically grown amastigote). The medium MAA/20, consisted of modified medium 199 (Hanks' balanced salts) supplemented with 0.5% soya trypto-casein, 15 mM D-glucose, 5 mM L-glutamine, 4 mM NaHCO3, 0.023 mM bovine hemin, 25 mM HEPES final pH, 6.5 and 20% inactivated fetal calf serum. The parasites were incubated with different concentrations during 3 days at 37° C. with 5% CO2. The growth of the parasites was done by measuring the luciferase activity using luciferin as a substract. The intracellular amastigotes of L. infantum were cultured in a macrophage differentiated human leukemia monocyte cell line (THP-1 cells). The THP-1 cells were differentiated during 2 days with 20 ng/ml of PMA in RPMI-1640 medium supplemented with 10% FCS, 2 mM glutamine, 100 IU of penicillin/ml and 100 μg/ml of streptomycin. The non differentiated cells were washed with prewarmed medium and the adherent cells sinfected with luciferase-expressing axenic amastigotes at a parasite/macrophage ratio of 3:1 for 4 h at 37° C. with 5% CO2. Noninternalized parasites were removed and serial dilutions of each drug were made in the RPMI medium supplemented with 10% FCS. After 3 days of drug exposure, wells containing adherent differentiated THP-1 cells were washed and luciferase activity was determined.
FIG. 1. […] The results are representative of 5 assays made independently. The promastigote and axenic amastigote were incubated with a serial range of drug concentrations 0.30 to 12.5 μM, at 27° C. and 3.125 to 100 μM at 37° C. in 5% CO2, respectively, during 3 days. The growth curves represented indicate the percentage growth related to the control for each concentration after luciferase activity determination. Each point represents a mean of 3 assays±STD.
(§2) Cytotoxicity determined by luciferase assay. The results were obtained after treatment of different parasite forms with a range of different drug concentrations 0.30 to 100 μM after 72 h of incubation. The results were representative of medium±SD at least 5 assays.

Data set [2] has as its system intracellular amastigotes of L. infantum. In words: Intracellular amastigotes in differentiated THP-1 cells (luciferase assay). It counts as cell-based, Leishmania infantum. The note with it: for IC50: Leishmania infantum, intracellular amastigotes in THP-1 cells, 72 h of incubation, read-out: IC50(μM) Amastigote intracellular; for parasite growth inhibition, intracellular amastigote: range of concentration 0.39 to 12.50 μM. As to the method: as §1
Cytotoxicity determined by luciferase assay. […] The results were representative of medium±SD at least 5 assays.

Data set [3] has as its system Leishmania infantum promastigotes. In words: Growth of luciferase-expressing promastigotes (luciferase assay). In kind it is cell-based. The note with it: for IC50: Leishmania infantum; for parasite growth inhibition, promastigote: range of concentration 0.39 to 12.50 μM, FIG. 1. The procedure: Leishmania infantum (clone MHOM/MA671TMA-P263) promastigotes transfected with reporter gene that encode to the luciferase enzyme (Roy et al, 2000) were grown at 27° C. in RPMI medium (Gibco) supplemented with 10% of heat inactivated fetal bovine serum (FBS-Gibco), 2 mM L-glutamine (Gibco), 20 mM Hepes (Gibco), 100 U/ml penicillin (Gibco) and 100 μg/ml streptomycin (Gibco). The parasites (10^6/ml) in the logarithmic phase (2 days of culture) were incubated with a serial range of concentrations of each drug for 3 days at 27° C. and the growth of parasites was determined by using the luciferase activity using luciferin as subtract.
FIG. 1. […] The results are representative of 5 assays made independently. […] The growth curves represented indicate the percentage growth related to the control for each concentration after luciferase activity determination. Each point represents a mean of 3 assays±STD.
as §2

For data set [4] the following is noted: most solvents; previously reported (Kong et al, 2000); cited from earlier work.
Where [5] appears, read: 24 h drug exposure, read-out: IC50 (μM) 24 h.
Setting [6] is: 48 h drug exposure, read-out: IC50 (μM) 48 h.
Setting [7] is: promastigote, unit inferred, read-out: IC50±SD promastigote.
[8] abbreviates: promastigotes, 72 h of incubation, 27° C., read-out: IC50(μM) Promastigotes.

Like-named read-outs stand apart in the source and are kept apart here.

In the case of `O=C1c2cccc3cccc(c23)C(=O)N1CCCNCCCCCCCCCCNCCCN1C(=O)c2cccc3cccc(c23)C1=O` [BNIPDadec, Bisnaphthalimidopropyldiaminodecane], the half-inhibitory concentration (IC50) in the data set on CaCo-2 colon carcinoma (setting [5]) stood at 0.77 µM; in the data set with CaCo-2 colon carcinoma (setting [6]), 0.36 µM. The aqueous solubility result in the data set “Solubility” is reported as “helps aqueous solubility”.

For `O=C1c2cccc3cccc(c23)C(=O)N1CCCNCCCCCCCCCCCCNCCCN1C(=O)c2cccc3cccc(c23)C1=O` [BNIPDadod, Bisnaphthalimidopropyldiaminododecane], the results for the 50% inhibitory concentration (IC50) in the data set with CaCo-2 colon carcinoma (setting [5]) and in the data set with CaCo-2 colon carcinoma (setting [6]) were 4.5 µM and 2.7 µM, respectively.

`O=C1c2cccc3cccc(c23)C(=O)N1CCCNCCCCCCCNCCCN1C(=O)c2cccc3cccc(c23)C1=O` [BNIPDahep, Bisnaphthalimidopropyldiaminoheptane]: the figures for the IC50 with CaCo-2 colon carcinoma (setting [5]) and with CaCo-2 colon carcinoma (setting [6]) were 3.2 µM and 0.94 µM, respectively.

Regarding `O=C1c2cccc3cccc(c23)C(=O)N1CCCNCCCCCCNCCCN1C(=O)c2cccc3cccc(c23)C1=O` [BNIPDahex, Bisnaphthalimidopropyldiaminohexane], the figures for the half-inhibitory concentration (IC50) in the data set with CaCo-2 colon carcinoma (setting [5]) and in the data set with CaCo-2 colon carcinoma (setting [6]) were 0.65 µM and 2 µM, respectively.

As for `O=C1c2cccc3cccc(c23)C(=O)N1CCCNCCCCCCCCCNCCCN1C(=O)c2cccc3cccc(c23)C1=O` [BNIPDanon, Bisnaphthalimidopropyldiaminononane], the “parasite growth inhibition, axenic amastigote” value in data set [1] was “dose dependent inhibition of parasite growth”. Further, the 50% inhibitory concentration (IC50) is 17.4 ± 0.97 µM in data set [1]; 6.03 ± 0.67 µM in data set [2]; 2.09 ± 0.54 µM in data set [3] (setting [7]); 2.09 ± 0.54 µM in data set [3] (setting [8]); 3.6 µM in the data set with CaCo-2 colon carcinoma (setting [5]); 0.67 µM in the data set on CaCo-2 colon carcinoma (setting [6]). Also, in data set [2], the “parasite growth inhibition, intracellular amastigote” value is listed as “dose dependent inhibition of parasite growth”. Further, the “parasite growth inhibition, promastigote” value in data set [3] was “dose dependent inhibition of parasite growth”. For the same molecule, the aqueous solubility result in the data set “Solubility” was “helps aqueous solubility”.

Turning to `O=C1c2cccc3cccc(c23)C(=O)N1CCCNCCCCCCCCNCCCN1C(=O)c2cccc3cccc(c23)C1=O` [BNIPDaoct, Bisnaphthalimidopropyldiaminooctane], the “parasite growth inhibition, axenic amastigote” value in data set [1] is “didn't inhibited the parasite growth up to 50 μM”. Also, the IC50 in data set [1] is ≥ 50 µM; in data set [2] it was 2.43 ± 0.19 µM; in data set [3] (setting [7]), ≤ 0.39 µM; in data set [3] (setting [8]), ≤ 0.39 µM; in the data set on CaCo-2 colon carcinoma (setting [5]), 6.2 µM; with CaCo-2 colon carcinoma (setting [6]) it was 3.2 µM. For the same molecule, the “parasite growth inhibition, intracellular amastigote” value in data set [2] is reported as “dose dependent inhibition of parasite growth”. Moreover, the “parasite growth inhibition, promastigote” value in data set [3] is “dose dependent inhibition of parasite growth”. Besides, in the data set “Solubility”, the aqueous solubility entry was “helps aqueous solubility”.

Regarding `O=C1c2cccc3cccc(c23)C(=O)N1CCCNCCCCCNCCCN1C(=O)c2cccc3cccc(c23)C1=O` [BNIPDapen, Bisnaphthalimidopropyldiaminopentane], the IC50 came out at 11 µM with CaCo-2 colon carcinoma (setting [5]) and 6.5 µM in the data set with CaCo-2 colon carcinoma (setting [6]).

`O=C1c2cccc3cccc(c23)C(=O)N1CCCNCCNCCNCCCN1C(=O)c2cccc3cccc(c23)C1=O` [BNIPDeta, Bisnaphthalimidopropyldietiltriamine]: in data set [1], the “parasite growth inhibition, axenic amastigote” value is on record as “dose dependent inhibition of parasite growth”. Also, the IC50 in data set [1] is 6.97 ± 0.2 µM; in data set [2], 9.52 ± 0.56 µM; in data set [3] (setting [7]), 0.96 ± 0.17 µM; in data set [3] (setting [8]), 0.96 ± 0.17 µM; in the data set on CaCo-2 colon carcinoma (setting [5]), 21.7 µM; in the data set on CaCo-2 colon carcinoma (setting [6]), 22.3 µM. The “parasite growth inhibition, intracellular amastigote” value in data set [2] is “dose dependent inhibition of parasite growth”. In data set [3], the “parasite growth inhibition, promastigote” value is recorded as “dose dependent inhibition of parasite growth”.

With `O=C1c2cccc3cccc(c23)C(=O)N1CCCNCCCNCCCNCCCN1C(=O)c2cccc3cccc(c23)C1=O` [BNIPDpta, Bisnaphthalimidopropyldipropiltriamine], the “parasite growth inhibition, axenic amastigote” value in data set [1] is recorded as “dose dependent inhibition of parasite growth”. In addition, the half-maximal inhibitory concentration (IC50) in data set [1] was 5.24 ± 0.93 µM; in data set [2], 4.22 ± 1.07 µM; in data set [3] (setting [7]), 1.09 ± 0.12 µM; in data set [3] (setting [8]) it was 1.09 ± 0.12 µM; in the data set with CaCo-2 colon carcinoma (setting [5]), 5 µM; in the data set with CaCo-2 colon carcinoma (setting [6]) it was 3.2 µM. The “parasite growth inhibition, intracellular amastigote” value in data set [2] is reported as “dose dependent inhibition of parasite growth”. Moreover, in data set [3], the “parasite growth inhibition, promastigote” value is “dose dependent inhibition of parasite growth”.

For the molecule `O=C1c2cccc3cccc(c23)C(=O)N1CCCNCCCCNCCCN1C(=O)c2cccc3cccc(c23)C1=O` [BNIPPut, Bisnaphthalimidopropylputrescine], in data set [1], the “parasite growth inhibition, axenic amastigote” value is reported as “dose dependent inhibition of parasite growth”. Further, the IC50 in data set [1] was found to be 5.49 ± 0.67 µM; in data set [2] it was 4.53 ± 0.54 µM; in data set [3] (setting [7]), 0.4 ± 0.15 µM; in data set [3] (setting [8]), 0.4 ± 0.15 µM. Besides, the “parasite growth inhibition, intracellular amastigote” value in data set [2] is on record as “dose dependent inhibition of parasite growth”. For the same molecule, the “parasite growth inhibition, promastigote” value in data set [3] was “dose dependent inhibition of parasite growth”. In data set [4], the solubility entry was “not soluble in most solvents”.

As to `O=C1c2cccc3cccc(c23)C(=O)N1CCCNCCCCNCCCNCCCN1C(=O)c2cccc3cccc(c23)C1=O` [BNIPSpd, Bisnaphthalimidopropylespermidine], the “parasite growth inhibition, axenic amastigote” value in data set [1] is reported as “dose dependent inhibition of parasite growth”. In addition, the 50% inhibitory concentration (IC50) in data set [1] was found to be 9.61 ± 1.84 µM; in data set [2], 8.92 ± 1.07 µM; in data set [3] (setting [7]), 1.86 ± 0.82 µM; in data set [3] (setting [8]) it was 1.86 ± 0.82 µM; in the data set on CaCo-2 colon carcinoma (setting [5]) it was 0.15 µM; in the data set with CaCo-2 colon carcinoma (setting [6]) it was 0.47 µM. The “parasite growth inhibition, intracellular amastigote” value in data set [2] is “dose dependent inhibition of parasite growth”. Besides, in data set [3], the “parasite growth inhibition, promastigote” value is “dose dependent inhibition of parasite growth”.

The IC50 is the point on the concentration scale where inhibition reaches its midpoint.
